This note sets out measurements from patent publication US9695198B2, “Factor IXa inhibitors” (MERCK SHARP & DOHME CORP., priority 2012, dated 2017).

pIC50: −log10 of the molar value.

For the first assay, the target named is Factor IXa (Homo sapiens, UniProt P00740). Nature of the assay: Determination of inhibitory activity against Factor IXa (cleavage of fluorescent peptide CH3SO2-D-CHG-Gly-Arg-AFC). The class given is biochemical. As to conditions: Factor IXa Inhibition table; low enzyme format; read-out: FIXa Low Enzyme. How it is done: Determination of Inhibitory Activity Against Factor IXa
Sequence of Factor IXa (P00740 227-461 limits assumed): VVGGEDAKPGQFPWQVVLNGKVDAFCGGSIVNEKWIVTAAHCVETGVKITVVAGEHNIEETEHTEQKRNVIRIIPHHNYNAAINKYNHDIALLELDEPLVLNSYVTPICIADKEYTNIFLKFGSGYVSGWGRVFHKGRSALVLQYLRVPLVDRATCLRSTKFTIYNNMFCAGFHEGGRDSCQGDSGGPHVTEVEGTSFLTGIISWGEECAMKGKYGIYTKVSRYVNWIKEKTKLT
Sequence of Factor IXa (P00740 47-191 partner limits assumed): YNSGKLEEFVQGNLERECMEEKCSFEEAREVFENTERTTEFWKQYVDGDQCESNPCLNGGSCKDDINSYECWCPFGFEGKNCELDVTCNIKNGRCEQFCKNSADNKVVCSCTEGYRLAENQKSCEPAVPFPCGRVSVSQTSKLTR
Formation of a clot to stem bleeding at a site of blood vessel injury involves the coordinated activity of a group of plasma proteins that initiate and propagate fibrin formation and subsequently protect fibrin from premature degradation. Factor IX is a key component of the plasma system that forms a fibrin clot at a site of vascular injury. The activity of Factor IXa is measured by monitoring the cleavage of the fluorescent peptide, CH3SO2-D-CHG-Gly-Arg-AFC.AcOH (“CHG” is cyclohexyl-glycine and “AFC” is trifluoro aminomethyl coumarin). Factor IXa cleaves the amide bond between Arg and AFC, thereby releasing the AFC fluorophore. The free AFC can be detected with a fluorescence detector at an excitation wavelength of 405 nm and emission wavelength of 510 nm.
Regarding `Nc1nsc2c1ccc1[nH]c([C@H](O)[C@H]3OCCN(c4ccn(-c5ccc(=O)n(C(F)F)c5)n4)C3=O)nc(=O)c12` [Example 10, (R)-2-((S)-(3-Amino-9-oxo-6,9-dihydroisothiazolo[5,4-f]quinazolin-7-yl)(hydroxy)methyl)-4-(1-(1-(difluoromethyl)-6-oxo-1,6-dihydropyridin-3-yl)-1H-pyrazol-3-yl)morpholin-3-one], the pIC50 was 8.52. As for `Cc1cc(N2CCO[C@H]([C@@H](O)c3nc(=O)c4c(ccc5c(N)nsc54)[nH]3)C2=O)nn1-c1ccnc(C(F)(F)F)c1` [Example 8, (R)-2-((S)-(3-Amino-9-oxo-6,9-dihydroisothiazolo[5,4-f]quinazolin-7-yl)(hydroxy)methyl)-4-(5-methyl-1-(2-(trifluoromethyl)pyridin-4-yl)-1H-pyrazol-3-yl)morpholin-3-one], the pIC50 was 7.75.

As for `Nc1nsc2c1ccc1[nH]c([C@H](O)[C@H]3OCCN(c4nc(C(F)(F)F)ccc4F)C3=O)nc(=O)c12` [Example 18, (R)-2-((S)-(3-Amino-9-oxo-6,9-dihydroisothiazolo[5,4-f]quinazolin-7-yl)(hydroxy)methyl)-4-(3-fluoro-6-(trifluoromethyl)pyridin-2-yl)morpholin-3-one], the pIC50 is 7.35. Same read-out and setting: for `Cc1cc(N2CCO[C@H]([C@@H](O)c3nc(=O)c4c(ccc5c(N)nsc54)[nH]3)C2=O)nn1C1CCOCC1` [Example 16, (R)-2-((S)-(3-Amino-9-oxo-6,9-dihydroisothiazolo[5,4-f]quinazolin-7-yl)(hydroxy)methyl)-4-(5-methyl-1-(tetrahydro-2H-pyran-4-yl)-1H-pyrazol-3-yl)morpholin-3-one] the value was 7.50.

As to `Cc1cc(N2CCO[C@H]([C@@H](O)c3nc(=O)c4c(ccc5c(N)nsc54)[nH]3)C2=O)nn1-c1cccnc1` [Example 4, (R)-2-((S)-(3-Amino-9-oxo-6,9-dihydroisothiazolo[5,4-f]quinazolin-7-yl)(hydroxy)methyl)-4-(5-methyl-1-(pyridin-3-yl)-1H-pyrazol-3-yl)morpholin-3-one], the pIC50 is 7.23. For the compound `Nc1nsc2c1ccc1[nH]c([C@H](O)[C@H]3OCCN(c4ccn(-c5ccncc5)n4)C3=O)nc(=O)c12` [Example 2, (R)-2-((S)-(3-Amino-9-oxo-6,9-dihydroisothiazolo[5,4-f]quinazolin-7-yl)(hydroxy)methyl)-4-(1-(pyridin-4-yl)-1H-pyrazol-3-yl)morpholin-3-one], the pIC50 was 8.33. On the same count and under the same terms, the same measure for `N#Cc1ccc(-n2ccc(N3CCO[C@H]([C@@H](O)c4nc(=O)c5c(ccc6c(N)nsc65)[nH]4)C3=O)n2)cc1` [Example 12, 4-(3-((R)-2-((S)-(3-Amino-9-oxo-6,9-dihydroisothiazolo[5,4-f]quinazolin-7-yl)(hydroxy)methyl)-3-oxomorpholino)-1H-pyrazol-1-yl)benzonitrile]: 8.51; for `Nc1nsc2c1ccc1[nH]c([C@H](O)[C@H]3OCCN(c4cccc(C5(O)CCC5)n4)C3=O)nc(=O)c12` [Example 24, (R)-2-((S)-(3-Amino-9-oxo-6,9-dihydroisothiazolo[5,4-f]quinazolin-7-yl)(hydroxy)methyl)-4-(6-(1-hydroxycyclobutyl)pyridin-2-yl)morpholin-3-one]: 7.61; for `Nc1nsc2c1ccc1[nH]c([C@H](O)[C@H]3OCCN(c4ccn(C5CC5)n4)C3=O)nc(=O)c12` [Example 15, (R)-2-((S)-(3-Amino-9-oxo-6,9-dihydroisothiazolo[5,4-f]quinazolin-7-yl)(hydroxy)methyl)-4-(1-cyclopropyl-1H-pyrazol-3-yl)morpholin-3-one]: 7.40. Same read-out and setting: the same measure for `Nc1nsc2c1ccc1[nH]c([C@H](O)[C@H]3OCCN(c4cccc(C(O)C(F)(F)F)n4)C3=O)nc(=O)c12` (stereo partly drawn) [Example 25, (2R)-2-((S)-(3-Amino-9-oxo-6,9-dihydroisothiazolo[5,4-f]quinazolin-7-yl)(hydroxy)methyl)-4-(6-(2,2,2-trifluoro-1-hydroxyethyl)pyridin-2-yl)morpholin-3-one]: 7.93. Still for that read-out and setting: the same measure for `Cc1cc(N2CCO[C@H]([C@@H](O)c3nc(=O)c4c(ccc5c(N)nsc54)[nH]3)C2=O)nn1-c1ccc(F)cc1` [Example 11, (R)-2-((S)-(3-Amino-9-oxo-6,9-dihydroisothiazolo[5,4-f]quinazolin-7-yl)(hydroxy)methyl)-4-(1-(4-fluorophenyl)-5-methyl-1H-pyrazol-3-yl)morpholin-3-one]: 7.28; for `Nc1nsc2c1ccc1[nH]c([C@H](O)[C@H]3OCCN(c4ccn(-c5ccnc(C(F)(F)F)c5)n4)C3=O)nc(=O)c12` [Example 7, (R)-2-((S)-(3-Amino-9-oxo-6,9-dihydroisothiazolo[5,4-f]quinazolin-7-yl)(hydroxy)methyl)-4-(1-(2-(trifluoromethyl)pyridin-4-yl)-1H-pyrazol-3-yl)morpholin-3-one]: 8.03; for `CC(O)(c1cccc(N2CCO[C@H]([C@@H](O)c3nc(=O)c4c(ccc5c(N)nsc54)[nH]3)C2=O)n1)C(F)(F)F` (stereo partly drawn) [Example 26, (2R)-2-((S)-(3-Amino-9-oxo-6,9-dihydroisothiazolo[5,4-f]quinazolin-7-yl)(hydroxy)methyl)-4-(6-(1,1,1-trifluoro-2-hydroxypropan-2-yl)pyridin-2-yl)morpholin-3-one]: 7.71. With `Nc1nsc2c1ccc1[nH]c([C@H](O)[C@H]3OCCN(c4cccc(OC(F)F)n4)C3=O)nc(=O)c12` [Example 19, (R)-2-((S)-(3-Amino-9-oxo-6,9-dihydroisothiazolo[5,4-f]quinazolin-7-yl)(hydroxy)methyl)-4-(6-(difluoromethoxy)pyridin-2-yl)morpholin-3-one], the pIC50 is 7.08. The same measure, in the same setting: the same measure for `N#Cc1ccc(-n2ccc(N3CCO[C@H]([C@@H](O)c4nc(=O)c5c(ccc6c(N)nsc65)[nH]4)C3=O)n2)cc1C(F)(F)F` [Example 13, 4-(3-((R)-2-((S)-(3-Amino-9-oxo-6,9-dihydroisothiazolo[5,4-f]quinazolin-7-yl)(hydroxy)methyl)-3-oxomorpholino)-1H-pyrazol-1-yl)-2-(trifluoromethyl)benzonitrile]: 7.55; for `COc1cc(-n2nc(N3CCO[C@H]([C@@H](O)c4nc(=O)c5c(ccc6c(N)nsc65)[nH]4)C3=O)cc2C)ccn1` [Example 6, (R)-2-((S)-(3-Amino-9-oxo-6,9-dihydroisothiazolo[5,4-f]quinazolin-7-yl)(hydroxy)methyl)-4-(1-(2-methoxypyridin-4-yl)-5-methyl-1H-pyrazol-3-yl)morpholin-3-one]: 7.24. Regarding `Cc1cc(N2CCO[C@H]([C@@H](O)c3nc(=O)c4c(ccc5c(N)nsc54)[nH]3)C2=O)nn1-c1ccncc1` [Example 3, (R)-2-((S)-(3-Amino-9-oxo-6,9-dihydroisothiazolo[5,4-f]quinazolin-7-yl)(hydroxy)methyl)-4-(5-methyl-1-(pyridin-4-yl)-1H-pyrazol-3-yl)morpholin-3-one], the pIC50 is 7.95. Still for that read-out and setting: the same measure for `Nc1nsc2c1ccc1[nH]c([C@H](O)[C@H]3OCCN(c4cccc(C(F)(F)F)n4)C3=O)nc(=O)c12` [Example 17, (R)-2-((S)-(3-Amino-9-oxo-6,9-dihydroisothiazolo[5,4-f]quinazolin-7-yl)(hydroxy)methyl)-4-(6-(trifluoromethyl)pyridin-2-yl)morpholin-3-one]: 7.36. On the same count and under the same terms, the same measure for `CC(C)(O)c1cccc(N2CCO[C@H]([C@@H](O)c3nc(=O)c4c(ccc5c(N)nsc54)[nH]3)C2=O)n1` [Example 21, (R)-2-((S)-(3-Amino-9-oxo-6,9-dihydroisothiazolo[5,4-f]quinazolin-7-yl)(hydroxy)methyl)-4-(6-(2-hydroxypropan-2-yl)pyridin-2-yl)morpholin-3-one]: 7.91; for `Nc1nsc2c1ccc1[nH]c([C@H](O)[C@H]3OCCN(c4ccn(-c5ccnnc5)n4)C3=O)nc(=O)c12` [Example 9, (R)-2-((S)-(3-Amino-9-oxo-6,9-dihydroisothiazolo[5,4-f]quinazolin-7-yl)(hydroxy)methyl)-4-(1-(pyridazin-4-yl)-1H-pyrazol-3-yl)morpholin-3-one]: 8.73. `Nc1nsc2c1ccc1[nH]c([C@H](O)[C@H]3OCCN(c4cccc(C5CC5)n4)C3=O)nc(=O)c12` [Example 20, (R)-2-((S)-(3-Amino-9-oxo-6,9-dihydroisothiazolo[5,4-f]quinazolin-7-yl)(hydroxy)methyl)-4-(6-cyclopropylpyridin-2-yl)morpholin-3-one]: the pIC50 is 7.05. On the same count and under the same terms, the same measure for `CC(C)(O)c1nc(N2CCO[C@H]([C@@H](O)c3nc(=O)c4c(ccc5c(N)nsc54)[nH]3)C2=O)ccc1C(F)(F)F` [Example 22, (R)-2-((S)-(3-Amino-9-oxo-6,9-dihydroisothiazolo[5,4-f]quinazolin-7-yl)(hydroxy)methyl)-4-(6-(2-hydroxypropan-2-yl)-5-(trifluoromethyl)pyridin-2-yl)morpholin-3-one]: 7.59. On the same count and under the same terms, the same measure for `Nc1noc2c1ccc1[nH]c([C@H](O)[C@H]3OCCN(c4ccn(-c5ccncc5)n4)C3=O)nc(=O)c12` [Example 1, 3-Amino-7-((S)-hydroxy((R)-3-oxo-4-(1-(pyridin-4-yl)-1H-pyrazol-3-yl)morpholin-2-yl)methyl)isoxazolo[5,4-f]quinazolin-9(6H)-one]: 7.84.

Staying with this assay, now noted: table of additional examples; low enzyme format; read-out: FIXa Low Enzyme.
As for `Nc1nccc2cc3[nH]c([C@H](O)[C@H]4OCCN(c5ccn(-c6ccncc6)n5)C4=O)nc(=O)c3cc12` [Example 28, (R)-2-((S)-(6-Amino-4-oxo-1,4-dihydropyrido[3,4-g]quinazolin-2-yl)(hydroxy)methyl)-4-(1-(pyridin-4-yl)-1H-pyrazol-3-yl)morpholin-3-one], the pIC50 is 7.56.
